Experimental data reported in ChEMBL document CHEMBL1134419, “Solution-Phase parallel synthesis of 5-carboxamido 1-benzyl-3-(3-dimethylaminopropyloxy)-1H-pyrazoles as activators of soluble guanylate cyclase with improved oral bioavailability” (Bioorg Med Chem Lett, 2001).

Legend:
[1] = species on record: Homo sapiens; test: Percent inhibition of collagen stimulated platelet aggregation at a concentration of 10 uM; format: functional
[2] = Stimulation of soluble guanylate cyclase (sGC) using baculovirus expressed and partially purified bovine sGC at 1 uM concentration relative to benzydamine
[3] = Tmax at the dose of 2 mg/Kg administered perorally in rats; format: ADME, organism-based; details: rat, in vivo, po
[4] = Cmax at the dose of 2 mg/Kg administered perorally in rats; format: ADME, organism-based; design: dose 2 mg/Kg, route oral; details: rat, in vivo, po
[5] = system: Rattus norvegicus; test: Area under curve at the dose of 2 mg/Kg administered perorally in rats; format: ADME, organism-based; details: in vivo, po
[6] = Bioavailability in rat (dose 2 mg/kg p.o.); format: ADME, organism-based; details: in vivo, po
[7] = species on record: Homo sapiens; test: Concentration required to inhibit collagen induced platelet aggregation by 50%; format: functional, organism-based
[8] = Tmax at the dose of 5 mg/Kg administered perorally in rats; format: ADME, organism-based; details: rat, in vivo, po
[9] = Cmax at the dose of 5 mg/Kg administered perorally in rats; format: ADME, organism-based; design: dose 5 mg/Kg, route oral; details: rat, in vivo, po
[10] = Percent bioavailability at the dose of 5 mg/Kg administered perorally in rats; format: ADME, organism-based; details: rat, in vivo, po
[11] = system: Rattus norvegicus; test: Area under curve at the dose of 5 mg/Kg administered perorally in rats; format: ADME, organism-based; details: in vivo, po
[12] = target: Soluble guanylate cyclase (Homo sapiens, UniProt O75343+P33402+Q02108+Q02153); test: The cGMP produced by compound was expressed as a ratio between the percentage of the DEA/NO response for the compound; format: protein-complex assay
Sequence of Soluble guanylate cyclase (Q02153 whole entry): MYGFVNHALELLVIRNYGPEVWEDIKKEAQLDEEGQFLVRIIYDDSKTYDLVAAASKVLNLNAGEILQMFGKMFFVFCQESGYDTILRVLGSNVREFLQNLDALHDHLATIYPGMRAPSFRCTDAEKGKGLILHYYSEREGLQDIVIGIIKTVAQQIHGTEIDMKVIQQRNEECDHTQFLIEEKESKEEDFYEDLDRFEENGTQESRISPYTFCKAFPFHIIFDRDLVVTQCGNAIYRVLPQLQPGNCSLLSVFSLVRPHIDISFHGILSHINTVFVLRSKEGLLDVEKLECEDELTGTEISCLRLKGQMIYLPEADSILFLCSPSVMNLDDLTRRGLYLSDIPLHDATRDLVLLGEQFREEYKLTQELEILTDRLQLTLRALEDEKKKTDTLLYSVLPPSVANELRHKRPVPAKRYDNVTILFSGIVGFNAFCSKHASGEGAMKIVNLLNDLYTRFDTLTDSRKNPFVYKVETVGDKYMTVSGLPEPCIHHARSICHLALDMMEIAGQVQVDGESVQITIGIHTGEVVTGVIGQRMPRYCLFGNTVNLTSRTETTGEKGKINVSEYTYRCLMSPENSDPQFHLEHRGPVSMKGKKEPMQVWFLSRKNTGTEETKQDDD
Sequence of Soluble guanylate cyclase (O75343 whole entry): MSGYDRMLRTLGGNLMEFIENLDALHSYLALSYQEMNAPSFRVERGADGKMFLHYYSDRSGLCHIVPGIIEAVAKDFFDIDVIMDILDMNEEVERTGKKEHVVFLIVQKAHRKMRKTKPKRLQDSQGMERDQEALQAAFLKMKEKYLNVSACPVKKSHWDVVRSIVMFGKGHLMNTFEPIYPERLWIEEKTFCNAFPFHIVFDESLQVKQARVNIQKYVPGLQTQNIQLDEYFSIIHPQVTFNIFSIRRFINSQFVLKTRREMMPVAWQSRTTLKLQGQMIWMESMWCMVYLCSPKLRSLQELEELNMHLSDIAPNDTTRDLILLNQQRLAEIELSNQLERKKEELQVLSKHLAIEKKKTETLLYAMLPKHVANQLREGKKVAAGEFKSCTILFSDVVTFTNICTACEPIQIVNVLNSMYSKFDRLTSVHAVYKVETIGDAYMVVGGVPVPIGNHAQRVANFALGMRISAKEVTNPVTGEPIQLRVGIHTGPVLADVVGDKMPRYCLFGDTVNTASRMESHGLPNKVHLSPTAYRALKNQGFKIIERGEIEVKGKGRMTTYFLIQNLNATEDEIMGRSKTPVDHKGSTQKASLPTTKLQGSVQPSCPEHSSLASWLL
Sequence of Soluble guanylate cyclase (P33402 whole entry): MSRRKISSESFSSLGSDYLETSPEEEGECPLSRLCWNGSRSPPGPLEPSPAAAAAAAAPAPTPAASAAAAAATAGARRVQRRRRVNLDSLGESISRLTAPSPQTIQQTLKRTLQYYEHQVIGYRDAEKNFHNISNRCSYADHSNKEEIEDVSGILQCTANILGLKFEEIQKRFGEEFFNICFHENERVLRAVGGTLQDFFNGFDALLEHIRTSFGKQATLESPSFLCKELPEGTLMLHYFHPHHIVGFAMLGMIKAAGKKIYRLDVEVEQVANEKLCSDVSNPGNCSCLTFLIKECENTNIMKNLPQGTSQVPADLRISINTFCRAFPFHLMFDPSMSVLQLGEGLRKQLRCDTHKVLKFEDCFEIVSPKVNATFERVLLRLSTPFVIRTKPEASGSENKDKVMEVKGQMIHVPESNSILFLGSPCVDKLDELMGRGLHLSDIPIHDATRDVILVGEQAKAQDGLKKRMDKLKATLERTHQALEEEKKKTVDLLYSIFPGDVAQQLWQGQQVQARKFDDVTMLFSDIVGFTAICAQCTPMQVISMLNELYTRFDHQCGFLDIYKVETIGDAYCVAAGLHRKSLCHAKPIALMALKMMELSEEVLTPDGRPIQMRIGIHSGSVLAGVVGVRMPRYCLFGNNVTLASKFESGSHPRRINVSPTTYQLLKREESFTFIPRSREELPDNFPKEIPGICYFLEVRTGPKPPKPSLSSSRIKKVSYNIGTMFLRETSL
Sequence of Soluble guanylate cyclase (Q02108 whole entry): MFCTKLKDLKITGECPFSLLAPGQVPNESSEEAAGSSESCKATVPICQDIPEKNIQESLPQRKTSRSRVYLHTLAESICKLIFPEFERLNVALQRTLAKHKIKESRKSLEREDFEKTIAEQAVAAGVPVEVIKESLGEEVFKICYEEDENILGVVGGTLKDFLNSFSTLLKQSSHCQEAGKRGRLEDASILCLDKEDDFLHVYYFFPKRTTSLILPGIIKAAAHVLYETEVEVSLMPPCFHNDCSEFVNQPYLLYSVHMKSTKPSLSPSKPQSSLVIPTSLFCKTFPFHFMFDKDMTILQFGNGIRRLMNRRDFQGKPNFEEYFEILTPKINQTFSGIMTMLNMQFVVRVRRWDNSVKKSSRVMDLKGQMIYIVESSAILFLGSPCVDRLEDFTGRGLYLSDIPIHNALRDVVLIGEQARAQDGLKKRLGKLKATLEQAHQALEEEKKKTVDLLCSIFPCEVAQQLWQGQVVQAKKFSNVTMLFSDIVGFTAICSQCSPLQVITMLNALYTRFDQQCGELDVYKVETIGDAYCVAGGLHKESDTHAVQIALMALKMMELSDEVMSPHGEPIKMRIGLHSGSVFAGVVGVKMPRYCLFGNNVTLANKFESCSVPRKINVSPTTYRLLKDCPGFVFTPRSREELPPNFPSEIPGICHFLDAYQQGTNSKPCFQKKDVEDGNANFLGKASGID

| SMILES | inhibition at 10 µM [1] | Relative enzyme activity [2] | further results |
| --- | --- | --- | --- |
| CN(C)CCCOc1cc(C(=O)Nc2ccc(-c3csnn3)cc2)n(Cc2ccccc2)n1 | 96% | 0.81 |  |
| COc1cccc(NC(=O)c2cc(OCCCN(C)C)nn2Cc2ccccc2)c1 | 96% | 0.74 |  |
| CN(C)CCCOc1cc(C(=O)Nc2ccc3c(c2)C(=O)N(C)C3=O)n(Cc2ccccc2)n1 | 64% | 0.81 |  |
| CN(C)CCCOc1cc(C(=O)Nc2cnc3ccccc3c2)n(Cc2ccccc2)n1 | 95% | 0.91 | Tmax [3]: 5 h; Cmax [4]: 14.3 ng/mL; AUC [5]: 95 ng·h/mL; bioavailability [6]: 19%; IC50 [7]: 3270 nM |
| COc1cc(NC(=O)c2cc(OCCCN(C)C)nn2Cc2ccccc2)cc(OC)c1 | 87% | 0.72 |  |
| CN(C)CCCOc1cc(C(=O)Nc2nccs2)n(Cc2ccccc2)n1 | 27% | 1.06 |  |
| COc1ccc(-c2ccccc2)cc1NC(=O)c1cc(OCCCN(C)C)nn1Cc1ccccc1 | 95% | 0.86 | Tmax [3]: 7.3 h; Cmax [4]: 18 ng/mL; AUC [5]: 130 ng·h/mL; bioavailability [6]: 22%; IC50 [7]: 2760 nM |
| COc1ccc(NC(=O)c2cc(OCCCN(C)C)nn2Cc2ccccc2)cc1 | 83% | 1.1 | Tmax [8]: 2.7 h; Cmax [9]: 6.4 ng/mL; bioavailability [10]: 12%; AUC [11]: 61.1 ng·h/mL; IC50 [7]: 2840 nM |
| CN(C)CCCOc1cc(C(=O)Nc2nc3c(s2)CCCC3)n(Cc2ccccc2)n1 | 92% | 0.85 |  |
| CN(C)CCCOc1cc(C(=O)Nc2ccc(Br)cc2)n(Cc2ccccc2)n1 | 90% | 0.87 | Tmax [3]: 5 h; Cmax [4]: 12.1 ng/mL; AUC [5]: 76.9 ng·h/mL; bioavailability [6]: 17%; IC50 [7]: 3580 nM |
| CN(C)CCCOc1cc(C(=O)Nc2ccn(-c3ccccc3)n2)n(Cc2ccccc2)n1 | 75% | 0.71 |  |
| COc1cc(NC(=O)c2cc(OCCCN(C)C)nn2Cc2ccccc2)cc(OC)c1OC | 66% | 0.96 |  |
| CN(C)CCCOc1cc(C(=O)Nc2nc3ccccc3[nH]2)n(Cc2ccccc2)n1 | 13% | 0.74 |  |
| CN(C)CCCOc1cc(C(=O)Nc2cc(F)cc(C(F)(F)F)c2)n(Cc2ccccc2)n1 | 43% | 0.9 |  |
| COc1ccc(NC(=O)c2cc(OCCCN(C)C)nn2Cc2ccccc2)cc1Cl | 93% | 0.88 | Tmax [3]: 4.5 h; Cmax [4]: 5.4 ng/mL; AUC [5]: 32.6 ng·h/mL; bioavailability [6]: 11%; IC50 [7]: 2630 nM |
| CN(C)CCCOc1cc(C(=O)Nc2cccc(-c3cnco3)c2)n(Cc2ccccc2)n1 | 83% | 0.71 |  |
| CN(C)CCCOc1cc(C(=O)Nc2cccc(F)c2)n(Cc2ccccc2)n1 | 95% | 0.87 |  |
| CN(C)CCCOc1cc(C(=O)Nc2ccc3[nH]ccc3c2)n(Cc2ccccc2)n1 | 66% | 0.91 |  |
| CN(C)CCCOc1cc(C(=O)Nc2nccc3ccccc23)n(Cc2ccccc2)n1 | 80% | 1.31 |  |
| CN(C)CCCOc1cc(C(=O)Nc2cc(F)cc(F)c2)n(Cc2ccccc2)n1 | 44% | 0.76 |  |
| CN(C)CCCOc1cc(C(=O)Nc2ccc(OC(F)(F)F)cc2)n(Cc2ccccc2)n1 | 85% | 0.93 |  |
| CN(C)CCCOc1cc(C(=O)Nc2ccc(Cl)cc2F)n(Cc2ccccc2)n1 | 96% | 0.91 |  |
| CN(C)CCCOc1cc(C(=O)Nc2cccc(Cl)c2)n(Cc2ccccc2)n1 | 95% | 0.93 |  |
| CN(C)CCCOc1cc(C(=O)Nc2ccccc2F)n(Cc2ccccc2)n1 | 58% | 1.02 |  |
| CN(C)CCCOc1nn(Cc2ccccc2)c2ccccc12 [BENZYDAMINE] |  |  | EC50 [12]: 1020 nM |
| CN(C)CCCOc1cc(C(=O)Nc2ccc3ccccc3n2)n(Cc2ccccc2)n1 | 57% | 0.97 |  |
